From patent US20090227795A1, “TARGET MOLECULES OF PLADIENOLIDES, COMPOUNDS BINDING TO SUCH TARGET MOLECULES, AND SCREENING METHOD THEREOF” (Eisai R & D Management Co., Ltd., priority 2006, published 2009)

Assays:
HeLa cells = assay: Observation of intracellular localization of fluorescent probe and competition assay (microscopy, anti-SC-35 staining); format: cell-based; conditions: for fluorescence intensity derived from the fluorescent probe after competition (rank order): 1 μM competitor added 1 hour before 1 μM fluorescent probe, lower intensity = stronger competition
Method: 1 μM of the fluorescent probe produced in Example A2 was added to HeLa cells, and the obtained mixture was incubated at 37° C. in an incubator for 1 hour. Thereafter, the medium was removed, and the remaining culture was further cultured for 1 hour in a fresh medium without probes and non-specifically adsorbed compounds were washed. The medium was removed again. The remaining culture was then washed with PBS. Thereafter, the cells were immobilized in 3.7% formaldehyde in PBS.
The immobilized cells were well washed with PBS, and were then permeabilized with 0.5% or 1% Triton X-100 in PBS. Thereafter, blocking was carried out with FBS or a blocking solution, and a primary antibody (anti-SC-35 monoclonal antibody; Sigma; S4045) was added to the resultant, so as to carry out a reaction. The reaction product was washed with PBS, and blocking was carried out again with FBS or a blocking solution. A fluorescent-labeled secondary antibody (TexasRed-labeled; Jackson) was added to the resultant, so as to carry out a reaction. The labeled sample was rapidly rinsed with distilled water, and it was then encapsulated into a Prolong antifade reagent (Molecular Probes). Localization of the fluorescent probe and the anti-SC-35 antibody was observed under a fluorescence microscope (DeltaVision, Applied Precision, Inc.) or a confocal microscope (LSM510; Carl Zeiss).
Furthermore, pladienolides or the derivatives thereof were used in the aforementioned experimental operations to carry out a competition assay. That is, before addition of the fluorescent probe, 1 μM pladienolides or the derivatives thereof were added to the cells, and the obtained mixture was then cultured for 1 hour. Thereafter, the same above operations for immobilization and staining were performed on the culture, followed by observation with a microscope, so as to confirm localization of the fluorescent probe.

SAP130 = target: T1, SAP130 (Homo sapiens, UniProt O75533+Q15393+Q7RTV0); assay: Detection of band shift using GFP-fused SAP145 or GFP-fused SAP130 proteins with photoaffinity biotin probe; format: binding; conditions: 1.5 μM probe, HeLa cells stably expressing GFP-SAP145 or GFP-SAP130, band shift
T1 construct: expressed in transfected cells
Method: SAP145 and SAP130, which were considered to be target molecules, were detected in almost the same position on SDS-PAGE. Thus, strains stably expressing a GFP-fused SAP145 or GFP-fused SAP 130 protein were prepared, and an experiment was then […] out using a photoaffinity biotin probe.
A 1.5 μM photoaffinity biotin probe was added to HeLa cells stably expressing GFP-SAP145, and the obtained mixture was then cultured for 1 hour. After washing the cells with PBS, M-PER (PIERCE) was then added thereto, followed by stirring at 4° C. for 1 hour. Thereafter, 1/10 vol. of 1.5 M NaCl-0.5% Tween 20 solution was added to the reaction solution, and the obtained mixture was then treated with a vortex (10 sec.×3). The resultant was centrifuged at 15,000 rpm at 4° C. for 5 minutes (TOMY MX-15). The thus obtained supernatant was filtrated with a 0.45-μm membrane, and the filtrate was used in the following immunoprecipitation experiment. […]
Moreover, using the same samples. SAP145 and SAP130 were detected with the SAP145 antibody and the SAP130 antibody, respectively.
Furthermore, an agarose resin prepared from probe-untreated cells was treated with a probe in the aforementioned experimental operations. Thereafter, UV irradiation and elution of a protein were carried out by the same operations as above, and it was examined whether or not the same band was detected in the obtained sample. […]

SAP145 or SAP130 = target: T2, SAP145 or SAP130 (Homo sapiens, UniProt O75533+Q15393+Q7RTV0); assay: Detection of bound protein by treatment with photoaffinity biotin probe (immunoprecipitation, UV crosslinking, streptavidin-HRP); format: binding; conditions: 1.5 μM probe, MDA-MB-468 2000 g-pellet, all antibodies, SDS-PAGE
T2 construct: endogenous in cells; host or cells: MDA-MB-468 (nuclear fraction, immunoprecipitate)
Method: 2000 g-pellet was prepared from MDA-MB-468 cells by the method described in Example B1. This pellet was suspended in a CSK buffer (300 mM sucrose, 100 mM NaCl, 3 mM MgCl2, 10 mM PIPES, pH=7.0, protease inhibitor cocktail), and the obtained suspension was then treated with the 1.5 μM photoaffinity biotin probe synthesized in Example A3. The suspension was left at rest at 4° C. for 1 hour, and it was then centrifuged at 2000 g at 4° C. for 10 minutes. The supernatant was removed, and a nuclear fraction was then prepared from the obtained precipitate by the same method as that described in Example B1. Thereafter, an immunoprecipitation solution was prepared by the sable method as that described in Example B4.
UV (365 nm and 302 nm) was applied to the obtained immunoprecipitate (agarose resin), and a crosslinking reaction was carried out. An SDS […] buffer was added to the reaction product, and the obtained mixture was then stirred with a vortex, followed by boiling at 99° C. for 10 minutes, so as to elute the immunoprecipitated proteins. The eluant was subjected to SDS-PAGE and blotting onto a PVDF membrane in accordance with common methods. Thereafter, the resultant was treated with streptavidin-HRP, so as to detect probe-bound proteins. […]

[1] = tested on: human breast cancer cells MDA-MB-468; assay: Intracellular distribution of tritium probe compound (cell fractionation, cold inhibition, charcoal assay); format: cell-based
Method: The tritiated probe compound produced in Example A1 was added to human breast cancer cells MDA-MB-468 (ATCC HTB-132) cultured on a 15-cm dish (>80% confluent), resulting in a concentration of 3 to 30 nM. The obtained mixture was then cultured in an incubator at 37° C. for 1 hour. After removing the medium, the culture was then washed with a Hanks' balanced salt solution (10 ml×2). Then, 3 ml of a 10% glycerol hypotonic buffer (10% glycerol, 20 mM NaCl, 1 mM EDTA, 10 mM Tris-HCl, pH=7.8, protease inhibitor cocktail) was added to the resultant. The obtained mixture was left at rest for a while, and the cells were then recovered using a cell scraper. A cell lysate was prepared using a Dounce homogenizer.
The lysate was centrifuged at 2,000 g at 4° C. for 10 minutes, so as to obtain a supernatant (2000 g-sup.) and a precipitate (2000 g-pellet). 2000 g-sup. was further centrifuged at 100,000 g at 4° C. for 60 minutes, so as to obtain a cytosol fraction as a supernatant, and a membrane fraction as a precipitate. 2000 g-pellet was suspended in 0.5 M NaCl, and the suspension was then left at rest for 30 minutes under cooling on ice, so as to elute a nuclear protein. Thereafter, centrifugation was carried out at 3,000 g at 4° C. for 10 minutes, so as to obtain a nuclear fraction as a supernatant, and a nuclear pellet as a precipitate.
The radioactivity of a tritium probe existing in each fraction was measured by the following method. That is, each of the cytosol fraction and the nuclear fraction was uniformly mixed with Hionic-Fluor (Perkin Elmer). On the other hand, each of the membrane fraction and the nuclear pellet was dissolved in Soluene-350 (Packard) (1 ml), and the obtained solution was then mixed with Hionic-Fluor. The radioactivity of each mixture was measured with a liquid scintillation counter.
At the same time, a radioisotope-non-labeled-pladienolide was used to carry out a cold inhibition experiment. That is, the cells were treated with a pladienolide having a concentration (0.15 to 1.5 μM) that was 50 times higher than the tritium probe treatment concentration, and they were then cultured at 37° C. in an incubator for 1 hour. Thereafter, the culture was treated with a tritium probe, and each fraction was prepared. Then, the radioactivity thereof was measured.
That is, 1/10 vol. (volume ratio) of a 10% activated charcoal suspension was added to each of the cytosol fraction and the nuclear fraction, followed by a treatment with a vortex for several seconds. The resultant was centrifuged at 15,000 rpm at 4° C. for 5 minutes (TOMY mini MX-15), and the radioactivity of the supernatant was measured in the same manner as that described above.

U2 snRNP complex = target: T3, U2 snRNP complex (Homo sapiens, UniProt O75533+Q15393+Q7RTV0); assay: Immunoprecipitation experiment of nuclear fraction prepared from tritium probe-treated cells; format: binding; conditions: 30 nM probe, MDA-MB-468 nuclear fraction, TMG, U1A/U2B″, SM BB′ & D1, SAP155, SAP145, cyclin E antibodies
T3 construct: endogenous in cells; host or cells: MDA-MB-468
Method: MDA-MB-468 cells were cultured in the presence of a 30 nM tritium probe for 1 hour. Thereafter, a nuclear fraction was prepared by the same method as that described in Example B1. A dilution buffer was added to the nuclear fraction to a final concentration of 0.15 M NaCl, 0.05% CA-630 and 40 mM tris-HCl (pH=7.5), so as to prepare an immunoprecipitation solution.
To this solution, each of antibodies reacting with splicing factors, transcriptional factors, or molecules associated with such factors were added to a concentration of 1 μg/ml. The obtained mixture was slowly stirred for approximately 12 hours in a low-temperature chamber of 4° C., using a sample rotator. Thereafter, 20 μl of 50% Protein A/G-agarose conjugate suspension was added to the reaction solution, and the obtained mixture was further stirred for 2 hours in the low-temperature chamber.
The agarose resin was recovered, and it was then washed with a washing solution (0.15 M NaCl, 0.05% CA-630, 20 mM tris-HCl, pH=7.5). An SDS sample buffer was added to the resultant solution, and the obtained mixture was then stirred with a vortex. The reaction solution was boiled at 99° C. for 10 minutes, so as to elute the immunoprecipitated protein. The eluant was mixed homogeneously with Hionic-Fluor, and the radioactivity of a tritium probe existing in the eluant was then measured with a liquid scintillation counter.

CCC(O)C(C)C1OC1CC(C)C=CC=C(C)C1OC(=O)CC(O)CCC(C)(O)C(OC(=O)NCCOCCOCCNC(=O)CCCCC2=[N+]3C(=Cc4c(C)cc(C)n4[B-]3(F)F)C=C2)C=CC1C (centres unmarked) [fluorescent probe, 7-(N-(2-(2-(2-(N-(5-(5,5-difluoro-7,9-dimethyl-5H-dipyrrolo[1,2-c:2′,1′-f][1,3,2]diazaborinin-4-ium-5-uid-3-yl)pentanoyl)amino)ethoxy)ethoxy)ethyl)carbamoyloxy)-3,6,21-trihydroxy-6,10,12,16,20-pentamethyl-18,19-epoxytricosa-8,12,14-trien-11-olide]
intracellular localization of fluorescent probe (HeLa cells; 1 μM probe, 1 hour, co-staining with anti-SC-35 antibody): mainly localized in granular structures in the nuclei

CCC(O)C(C)C1OC1CC(C)/C=C/C=C(\C)C1OC(=O)CC(O)CCC(C)(O)C(OC(=O)NCCCC[C@H](NC(=O)c2ccc(C3(C(F)(F)F)NN3)cc2)C(=O)N(C)CCN(C)C(=O)CCCC[C@@H]2SC[C@@H]3NC(=O)N[C@@H]32)/C=C/C1C (stereo partly drawn) [photoaffinity biotin probe, (8E,2E,14E)-3,621-trihydroxy-6,10,12,16,20-pentamethyl-7-(N-((5S)-6-(N-methyl-N-(2-(N-methyl-N-(5-((3aS,4S,6aR)-2-oxohexahydro-1H-thieno[3,4-d]imidazol-4-yl)pentanoyl)amino)ethyl)amino)-6-oxo-5-(N-(4-(3-(trifluoromethyl)-3H-diaziren-3-yl)benzoyl)amino)hexyl)carbamoyloxy)-18,19-epoxytricosa-8,12,14-trien-11-olide]
protein to which the probe has bound (SAP130): not SAP145 but SAP130 | position of band of probe-bound protein (SAP145 or SAP130): 130-140 kDa

CCC(O)C(C)C1OC1CC(C)/C=C/C=C(\C)C1OC(=O)CC(O)CCC(C)(O)C(O)/C=C/C1C (centres unmarked) [pladienolide A]
fluorescence intensity derived from the fluorescent probe after competition (rank order) (HeLa cells): pladienolide A >non-labeled tritium probe compound >pladienolides B and D

CCC(O)C(C)C1OC1CC(C)/C=C/C=C(\C)C1OC(=O)CC(O)CCC(C)(O)C(OC(C)=O)/C=C/C1C (centres unmarked) [pladienolide B, reference compound]
fluorescence intensity derived from the fluorescent probe after competition (rank order) (HeLa cells): pladienolide A >non-labeled tritium probe compound >pladienolides B and D | radioactivity of tritium probe after pre-treatment with non-labeled pladienolide (cold inhibition) ([1]; pre-treatment at 50 times the tritium probe concentration (0.15 to 1.5 μM), 1 hour): almost completely disappeared

(8E,12E,14E)-7-(N—[G-^3H]ethylcarbamoyloxy)-3,6,21-trihydroxy-6,10,12,16,20-pentamethyl-18,19-epoxytricosa-8,12,14-trien-11-olide [tritium probe]
radioactivity of tritium probe co-immunoprecipitated with antibodies (U2 snRNP complex): specific radioactivity was observed | radioactivity of tritium probe existing in each cell fraction ([1]; MDA-MB-468 cells, probe 3 to 30 nM, 1 hour, cytosol, membrane, nuclear fraction, nuclear pellet): highest radioactivity of the tritium probe was detected in the nuclear fraction | radioactivity of the cytosol fraction after treatment with activated charcoal ([1]; charcoal assay, cytosol fraction): almost all the radioactivity of the cytosol fraction disappeared | radioactivity in the nuclear fraction after treatment with activated charcoal ([1]; charcoal assay, nuclear fraction): did not disappear

pladienolide D
fluorescence intensity derived from the fluorescent probe after competition (rank order) (HeLa cells): pladienolide A >non-labeled tritium probe compound >pladienolides B and D
